Legend:
Type in all cases: cell-based
E. coli [1] = test: Disc diffusion test, antibiotic discs with CBD disc; conditions: antibiotic disc + 5 μM CBD disc vs antibiotic alone, 24 h
Procedure: (§1) Discs were impregnated with the following […]: Colistin (10 μg/ml), Rifampicin (15 μg/ml), Erythromycin (15 μg/ml), Kanamycin (30 μg/ml) and Vancomycin (5 μg/ml).
(§2) Concentration of the antibiotics used was based on previously published and established MIC values (Moskowitz et al., 2010; Rojas et al., 2017; Goldstein et al., 2018; Maclayton et al., 2006, Kshetry et al., 2016).
(§3) E. coli and S. aureus agar plates were prepared for the disc diffusion test by soaking a sterile paper disc in 5 μM CBD and placing it in the middle of the agar plate, while the impregnated antibiotic discs were placed equidistant to the CBD disc. Zone of inhibition was assessed after 24 h.

S. aureus [2] = test: as above; conditions: antibiotic disc + 5 μM CBD disc vs antibiotic alone, 24 h
Procedure: as §1, §2, §3

S. aureus [3] = test: CBD-mediated membrane vesicle inhibition, release quantified by nanoparticle tracking analysis; conditions: CBD 1 or 5 μM, 1 h
Procedure: (§4) E. coli and S. aureus cultures were maintained by plating on Mueller-Hinton agar plates and weekly sub-culturing was performed according to previously established methods (Iqbal et. al. 2013).
(§5) Before OMV isolation, all bacterial growth medium was pre-treated before use by ultracentrifugation at 75,000 g for 24 h, to ensure minimum contamination with extracellular vesicles (EVs) from the medium.
(§6) For OMV isolation, bacteria were grown in EV-free medium (as described above) for 24 h at 37° C. and 5% CO2, the culture medium collected and centrifuged once at 400 g for 10 min for removal of cells, followed by centrifugation at 4000 g for 1 h at 4° C. to remove cell debris. […]
(§7) Samples were diluted 1:50 in sterile-filtered EV-free DPBS and the number of particles in the field of view was maintained in the range of 20-40 with a minimum concentration of samples at 5×10^7 particles/ml. Camera settings were according to the manufacturer's instructions (Malvern), five 30 sec videos per sample were recorded and replicate histograms averaged. […]
(§8) The experiment was repeated three times and the OMVs were quantified using NTA analysis. Cell viability was assessed after 1 h treatment with CBD compared to controls and before the start of every experiment using viable count.

E. coli [4] = test: CBD-mediated OMV inhibition, OMV release quantified by nanoparticle tracking analysis; conditions: 1 h, vs control
Procedure: as §4, §5, §6, §7, §8

Question: How did the “sensitisation to antibiotic by CBD (in words)” value (E. coli [1]) turn out when `CN[C@H](CC(C)C)C(=O)N[C@H]1C(=O)N[C@@H](CC(N)=O)C(=O)N[C@H]2C(=O)N[C@H]3C(=O)N[C@H](C(=O)N[C@H](C(=O)O)c4cc(O)cc(O)c4-c4cc3ccc4O)[C@H](O)c3ccc(c(Cl)c3)Oc3cc2cc(c3O[C@@H]2O[C@H](CO)[C@@H](O)[C@H](O)[C@H]2O[C@H]2C[C@](C)(N)[C@H](O)[C@H](C)O2)Oc2ccc(cc2Cl)[C@H]1O` [Vancomycin] was run?
Answer: did not increase antibacterial effects

Question: How did the “increase of antibacterial effect (radius of zone of inhibition) when combined with CBD” value (E. coli [1]) turn out when `NC[C@H]1O[C@H](O[C@H]2[C@H](O)[C@@H](O[C@H]3O[C@H](CO)[C@@H](O)[C@H](N)[C@H]3O)[C@H](N)C[C@@H]2N)[C@H](O)[C@@H](O)[C@@H]1O` [Kanamycin] was run?
Answer: 18%

Question: And the “increase of antibiotic activity (radius of zone around diffusion disk) by CBD” value (S. aureus [2])?
Answer: 30%

Question: Which “increase of antibacterial effect (radius of zone of inhibition) when combined with CBD” value (E. coli [1]) does the source give for `CO[C@H]1/C=C/O[C@@]2(C)Oc3c(C)c(O)c4c(O)c(c(/C=N/N5CCN(C)CC5)c(O)c4c3C2=O)NC(=O)/C(C)=C\C=C\[C@H](C)[C@H](O)[C@@H](C)[C@@H](O)[C@@H](C)[C@H](OC(C)=O)[C@@H]1C` [Rifampicin] here?
Answer: 50%

Question: Colistin [Colisitin] was tested. Which “sensitisation to antibiotic by CBD (in words)” value (E. coli [1]) did it give?
Answer: not

Question: For `C=C(C)[C@@H]1CCC(C)=C[C@H]1c1c(O)cc(CCCCC)cc1O` [CBD, Cannabidiol], which “effect on membrane vesicle release” value (S. aureus [3]) is on record?
Answer: no effect

Question: And the “reduction of total OMV release” value (E. coli [4]; 1 μM CBD)?
Answer: 73%

Question: And the “reduction of total OMV release” value (E. coli [4]; 5 μM CBD)?
Answer: 54%

Question: How did the “increase of antibacterial effect (radius of zone of inhibition) when combined with CBD” value (E. coli [1]) turn out when `CC[C@H]1OC(=O)[C@H](C)[C@@H](O[C@H]2C[C@@](C)(OC)[C@@H](O)[C@H](C)O2)[C@H](C)[C@@H](O[C@@H]2O[C@H](C)C[C@H](N(C)C)[C@H]2O)[C@](C)(O)C[C@@H](C)C(=O)[C@H](C)[C@@H](O)[C@]1(C)O` [Erythromycin] was run?
Answer: 35%

Question: And the “effect of CBD on antibacterial activity of antibiotic (in words)” value (S. aureus [2])?
Answer: reduced antibacterial effects

From patent US20220183997A1, “USE OF C[…] COMBINATION WITH ANTIBIOTICS” (GW Pharma Limited, priority 2019, published 2022)
